Here are results for nine molecules from patent US6420630B1, “Methods for tissue culturing and transforming elite inbreds of Zea mays L” (Stine Biotechnology, priority 1998, dated 2002).

Test [1] has as its system immature embryos of Stine inbred 963. The experiment in a line: Type II callus initiation from cultured immature embryos (embryos responding). Format: cell-based, Zea mays L. The note with it: sugar at 10 g/l in combination with 20 g/l sucrose, N6A medium. On the procedure:
Plants of the elite corn inbred Stine 963 were grown under controlled conditions, either in a grow room or in a greenhouse. Plants were exposed throughout growth to a 16 h photoperiod with a daytime temperature of around 30° C. and a nighttime temperature of around 25° C. Plants were selfed and after approximately 10 days ears were harvested. At this time the immature embryos were on average between 1.0 and 2.0 mm in length. Usually the ears were then placed at 4° for two days prior to immature embryo excision. The response on standard […] media (Table 1) for inducing Type II callus was variable and appeared to be dependent on the physiological state of the donor plant. The frequency of Type II callus ranged from 0% up to 95%, with an average of around 40%. Immature embryos were excised with a view to using them as targets for Agrobacterium-mediated DNA delivery. For this work a reproducible and high frequency response is required and improvement in these aspects was therefore desirable. The protocol used for introduction of DNA mediated by Agrobacterium was based on that described by Hei and Komari (1997). The co-cultivation medium in this protocol (LSAS-Table 1) contains glucose, intended presumably as a carbon source for Agrobacterium. After close observation of immature embryos on LSAS medium it was thought worthwhile to check for the effects of glucose on culture initiation and subsequent development. 10 g/l of glucose was therefore added to […] medium. This medium was subsequently referred to as […] (Table 1). […] Various other sugars were tested in this regard (see Table 3) and some are capable of supporting an increased rate of Type II callus initiation (especially maltose, lactose, sorbitol and mannitol). None of those tested, however, were as efficient as glucose in stimulating Type II callus formation on […] medium. All sugars were tested at 10 g/l in combination with 20 g/l sucrose.

The subject of the next test is Agrobacterium. Briefly: Control of Agrobacterium growth on culture media after co-cultivation. Format: cell-based, Agrobacterium tumefaciens. The note with it: for control of Agrobacterium growth: first 19 day culture period after co-cultivation. The source says:
Agrobacterium strain LBA 4404 harboring “super binary” vectors as described in U.S. patent Hei and Komari (1997) was used in corn transformation experiments. […] The gus expression cassette contains an intron in the N-terminal region of the gus gene which prevents expression in bacteria, but upon expression in plant cells the intron is spliced out and Gus activity is achieved (Ohta et al., 1990; Ishida et al., 1996). Agrobacterium containing “super binary” vectors were stored in glycerol stocks using acidified glycerol. Glycerol was acidified by adding 15 drops of 1 M HCl to one liter of glycerol (Sigma G-9012). Final glycerol concentration of stocks was 15 to 20% and stocks were frozen at minus 86° C. When glycerol stocks were used as the source for transformation experiments, Agrobacterium was made ready for transformation experiments by removing a few flakes of frozen culture with a sterile loop, streaking it out on YP medium (5 g/l yeast extract, 10 g/l peptone, 5 g/l NaCl, and 15 g/l agar) containing 50 mg/l spectinomycin, and incubating it for one or two days at 28° C. When glycerol stocks were not used as the source, Agrobacterium maintained on YP plus spectinomycin at 4° C. was used to initiate new cultures of Agrobacterium that were grown as described above.
Therefore, a lower level of cefotaxime was tested in the presence of silver nitrate to see if embryo response and subsequent clone recovery could be improved. […] The clones were then transferred to DN62B (Table 4) for growth and further selection prior to regeneration.

As for `O=C[C@H](O)[C@@H](O)[C@H](O[C@@H]1O[C@H](CO)[C@@H](O)[C@H](O)[C@H]1O)[C@H](O)CO` [Cellobiose], in test [1], the “Embryo Response” value was less than 50%.

Consider `O=C(CO)[C@@H](O)[C@H](O)[C@H](O)CO` [Fructose], for which, in test [1], the “Embryo Response” value is listed as less than 50%.

For `O=C[C@H](O)[C@@H](O)[C@@H](O)[C@H](O)CO` [Galactose], in test [1], the “Embryo Response” value was less than 30%.

`OC[C@H]1O[C@H](OCC2O[C@@H](O)[C@H](O)[C@@H](O)[C@@H]2O)[C@H](O)[C@@H](O)[C@H]1O` (stereo partly shown) [Mellibiose]: the “Embryo Response” value in test [1] is on record as less than 50%.

For the molecule `OC[C@H]1O[C@H](OC[C@H]2O[C@H](O[C@]3(CO)O[C@H](CO)[C@@H](O)[C@@H]3O)[C@H](O)[C@@H](O)[C@@H]2O)[C@H](O)[C@@H](O)[C@H]1O` [Raffinose], in test [1], the “Embryo Response” value is recorded as less than 50%.

On to `OC[C@H]1O[C@H](O[C@H]2O[C@H](CO)[C@@H](O)[C@H](O)[C@H]2O)[C@H](O)[C@@H](O)[C@@H]1O` [Trehalose], for which the “Embryo Response” value in test [1] is reported as less than 50%.

`O=C[C@H](O)[C@@H](O)[C@H](O)CO` [Xylose]: in test [1], the “Embryo Response” value is given as less than 50%.

Take `CO/N=C(\C(=O)N[C@@H]1C(=O)N2C(C(=O)O)=C(COC(C)=O)CS[C@H]12)c1csc(N)n1` [cefotaxime]: the “control of Agrobacterium growth” value is “not” in the test on Agrobacterium (10 mg/l cefotaxime in presence of silver nitrate) and “Adequate control of Agrobacterium growth” in the test on Agrobacterium (50 mg/l cefotaxime in presence of silver nitrate).

`O=[N+]([O-])[O-].[Ag+]` [silver nitrate]: in the test on Agrobacterium (media containing silver nitrate), the Agrobacterium growth result is reported as “inhibited”.
